Measurements taken from patent US8598114B2, “Antimicrobial compounds” (priority 2007, dated 2013).
“And” between values parts separate entries of the source, which are not always exact repeats. Equal values may be shown once.

Key:
Pseudomonas aeruginosa = experiment: MIC, CLSI microbroth dilution (aerobic bacteria); format: cell-based; design: unit not given beside the values
Excerpt: (§1) Cation-adjusted Mueller-Hinton broth (Oxoid Ltd., Basingstoke, UK and Trek Diagnostic Systems Ltd., East Grinstead, UK) (supplemented with 5% laked horse blood for Streptococcus spp., Corynebacterium jeikeium and Listeria monocytogenes) was used for aerobic bacteria, with an initial inoculum of approximately 10^5 colony-forming units (CFU)/mL.
(§2) To evaluate whether freezing affected the activity of the peptides some MIC determinations were repeated using plates containing freshly-prepared Mueller-Hinton broth.

Escherichia coli = experiment: MIC, CLSI microbroth dilution (aerobic bacteria); format: cell-based; design: unit not given beside the values
Excerpt: as §1, §2

Enterococcus faecalis = experiment: MIC, CLSI microbroth dilution (aerobic bacteria); format: cell-based; design: unit not given beside the values
Excerpt: as §1, §2

Microsporum canis = experiment: MIC, CLSI microbroth dilution (filamentous fungi); format: cell-based; conditions: Microsporum canis - G.R. Micro collection
Method: M38-A Vol. 22 No. 16 Reference Method for Broth Dilution Antifungal Susceptibility Testing of Filamentous Fungi; Approved Standard.
(§3) Yeast and filamentous fungal MIC were performed in MOPS buffered RPMI 1640 medium (MOPS buffer obtained from Sigma Aldrich Ltd., RPMI 1640 obtained from Invitrogen Ltd, Paisley, Scotland). The yeast inocula were in the range 7.5×10^2-4×10^3 CFU/mL and the filamentous fungi approximately 8×10^3-1×10^5CFU/mL

Enterococcus gallinarum = experiment: MIC, CLSI microbroth dilution (aerobic bacteria); format: cell-based; conditions: Enterococcus gallinarum vancomycin-resistant (VanC) clinical isolate
Excerpt: as §1

Corynebacterium jeikeium = experiment: MIC, CLSI microbroth dilution (aerobic bacteria); format: cell-based
Excerpt: as §1

Enterococcus faecium = experiment: MIC, CLSI microbroth dilution (aerobic bacteria); format: cell-based
Excerpt: as §1

[1] = test system: Staphylococcus haemolyticus; experiment: MIC, CLSI microbroth dilution (aerobic bacteria); format: cell-based; conditions: Staphylococcus haemolyticus - antibiotic susceptible clinical isolate
Excerpt: as §1

Acinetobacter baumanii = experiment: MIC, CLSI microbroth dilution (aerobic bacteria); format: cell-based; conditions: Acinetobacter baumanii - antibiotic-susceptible clinical isolate
Excerpt: as §1

Staphylococcus aureus = experiment: MIC, CLSI microbroth dilution (aerobic bacteria); format: cell-based; design: unit not given here
Excerpt: as §1, §2

Clostridium difficile = experiment: MIC, CLSI microbroth dilution (anaerobic bacteria); format: cell-based; conditions: Clostridium difficile - antibiotic-susceptible clinical isolate
Method: M11-A6 Vol. 24 No. 2 Methods for Antimicrobial Susceptibility Testing of Anaerobic Bacteria; Approved Standard-Sixth Edition.
Supplemented Brucella broth (SBB) was used for the anaerobic strains with an inoculum of approximately 10^6 CFU/mL. SBB is a broth consisting of 1% peptone, 0.5% ‘Lab-lemco’, 1% glucose and 0.5% sodium chloride supplemented with 5 […] vitamin K (both obtained from Sigma Aldrich Ltd.)

Candida tropicalis = experiment: MIC, CLSI microbroth dilution (yeasts); format: cell-based; design: unit not given beside the values; conditions: Candida tropicalis ATCC750 - reference strain
Method: (§4) M27-A2 Vol. 22 No. 15 Reference Method for Broth Dilution Antifungal Susceptibility Testing of Yeasts; Approved Standard-Second Edition.
as §3

Candida parapsilosis = experiment: MIC, CLSI microbroth dilution (yeasts); format: cell-based; design: unit not given beside the values
Method: as §4, §3

Candida albicans = experiment: MIC, CLSI microbroth dilution (yeasts); format: cell-based; design: unit not given beside the values
Method: as §4, §3

[2] = test system: Candida (Issatchenkia) krusei; experiment: MIC, CLSI microbroth dilution (yeasts); format: cell-based; design: unit not given beside the values
Method: as §4, §3

Cryptococcus neoformans = experiment: MIC, CLSI microbroth dilution (yeasts); format: cell-based; design: unit not given beside the values; conditions: Cryptococcus neoformans - G.R. Micro collection
Method: as §4, §3

Clostridium perfringens = format: cell-based; conditions: Clostridium perfringens - antibiotic-susceptible clinical isolate
Haemophilus influenzae = experiment: MIC, CLSI microbroth dilution (Haemophilus test medium)
Bacteroides fragilis = experiment: MIC, CLSI microbroth dilution (anaerobic bacteria); format: cell-based; design: unit not given here; conditions: Bacteroides fragilis - ATCC 25285, SBB (Table 2)
Eggerthella lenta = experiment: MIC, CLSI microbroth dilution (anaerobic bacteria); format: cell-based; design: unit not given here; conditions: Eggerthella lenta - ATCC 43055, SBB (Table 2)

For `N=C(N)NCCCC(N)C(=O)NC(Cc1ccc(-c2ccc3ccccc3c2)cc1)C(=O)NC(CCCNC(=N)N)C(=O)NCCc1ccccc1` (stereo not drawn) [Compound 1], the MIC (Pseudomonas aeruginosa; GN10 Pseudomonas aeruginosa ATCC 27853 type strain, repeat results (Table 2), Fresh MHB) was 8, the MIC (Pseudomonas aeruginosa; GN10 Pseudomonas aeruginosa ATCC 27853 type strain, repeat results (Table 2), Frozen MHB) was 16 and 32 and the MIC (Pseudomonas aeruginosa; Pseudomonas aeruginosa - multi-drug resistant clinical isolate) was 32. The MIC (Pseudomonas aeruginosa; Pseudomonas aeruginosa ATCC27853 - antibiotic-susceptible type) was 16, the MIC (Escherichia coli; Escherichia coli - multi-drug resistant clinical isolate) was 32 and the MIC (Escherichia coli; Escherichia coli ATCC25922 - antibiotic-susceptible type strain) was 32. For the same molecule, the MIC (Escherichia coli; Escherichia coli ATCC32518 - β-lactamase positive type strain) was 32, the MIC (Escherichia coli; GN01 Escherichia coli ATCC 25922 type strain, repeat results (Table 2), Fresh MHB) was 16 and the MIC (Escherichia coli; GN01 Escherichia coli ATCC 25922 type strain, repeat results (Table 2), Frozen MHB) was 32. It also gave an MIC (Enterococcus faecalis; Enterococcus faecalis - ATCC 29212 antibiotic-susceptible control (Table 1)) of 4, an MIC (Enterococcus faecalis; Enterococcus faecalis high-level gentamicin-resistant clinical isolate) of 16 and an MIC (Enterococcus faecalis; Enterococcus faecalis vancomycin-resistant (VanA) clinical isolate) of 16. It also gave an MIC (Enterococcus faecalis; Enterococcus faecalis vancomycin-resistant (VanB) clinical isolate) of 16, an MIC (Enterococcus faecalis; Enterococcus faecalis vancomycin-susceptible clinical isolate) of 8 and an MIC (Enterococcus faecalis; GP11 Enterococcus faecalis - ATCC 29212 control strain, repeat results (Table 2), Fresh MHB) of 4. It also gave an MIC (Enterococcus faecalis; GP11 Enterococcus faecalis - ATCC 29212 control strain, repeat results (Table 2), Frozen MHB) of 8, an MIC (Microsporum canis) of 8 and an MIC (Enterococcus gallinarum) of 4. The MIC (Corynebacterium jeikeium; Corynebacterium jeikeium - antibiotic-susceptible clinical isolate) was 32, the MIC (Corynebacterium jeikeium; Corynebacterium jeikeium - multi-drug resistant clinical isolate) was 32 and the MIC (Enterococcus faecium; Enterococcus faecium vancomycin-resistant (VanA) clinical isolate) was 16. It also gave an MIC (Enterococcus faecium; Enterococcus faecium vancomycin-resistant (VanB) clinical isolate) of 8, an MIC (Enterococcus faecium; Enterococcus faecium vancomycin-susceptible clinical isolate) of 8 and an MIC [1] of 4. It also gave an MIC (Acinetobacter baumanii) of 64, an MIC (Staphylococcus aureus; EMRSA1 Staphylococcus aureus (MRSA) - SSCmec type 3) of 8 and an MIC (Staphylococcus aureus; EMRSA3 Staphylococcus aureus (MRSA) - SSCmec type 1) of 4. For the same molecule, the MIC (Staphylococcus aureus; EMRSA15 Staphylococcus aureus (MRSA) - SSCmec type 4) was 4, the MIC (Staphylococcus aureus; EMRSA16 Staphylococcus aureus (MRSA) - SSCmec type 2) was 4 and the MIC (Staphylococcus aureus; GP01 Staphylococcus aureus ATCC 29213 control strain, repeat results (Table 2), Fresh MHB) was 4. For the same molecule, the MIC (Staphylococcus aureus; GP01 Staphylococcus aureus ATCC 29213 control strain, repeat results (Table 2), Frozen MHB) was 8 and 4, the MIC (Staphylococcus aureus; HT2001254 Staphylococcus aureus (MRSA) - PVL positive) was 4 and the MIC (Staphylococcus aureus; MU50 Staphylococcus aureus (MRSA) - VISA type strain) was 4. It also gave an MIC (Staphylococcus aureus; Staphylococcus aureus - methicillin-resistant clinical isolate) of 4, an MIC (Staphylococcus aureus; Staphylococcus aureus - multi-drug-resistant clinical isolate) of 8 and an MIC (Staphylococcus aureus; Staphylococcus aureus - teicoplanin-intermediate clinical isolate) of 4. For the same molecule, the MIC (Staphylococcus aureus; Staphylococcus aureus ATCC 25923 - antibiotic-susceptible control) was 4, the MIC (Staphylococcus aureus; Staphylococcus aureus ATCC 29213 - antibiotic-susceptible control (Table 1)) was 4 and the MIC (Staphylococcus aureus; Staphylococcus aureus ATCC 43300 - methicillin-resistant control strain) was 4. For the same molecule, the MIC (Clostridium difficile) was 32, the MIC (Candida tropicalis) was 2 and the MIC (Candida parapsilosis; Candida parapsilosis ATCC 22019, RPMI 1640 (Table 2)) was 4. For the same molecule, the MIC (Candida parapsilosis; Candida parapsilosis ATCC90018 - reference strain) was 4, the MIC (Candida albicans; Candida albicans ATCC24433 - reference strain) was 2 and the MIC (Candida albicans; Candida albicans ATCC90028 - reference strain) was 2. For the same molecule, the MIC ([2]; Candida (Issatchenkia) krusei ATCC6258 - reference strain) was 4, the MIC ([2]; F05 Candida (Issatchenkia) krusei ATCC 6258 reference strain, repeat results (Table 2), RPMI 1640) was 8 and the MIC (Cryptococcus neoformans) was 4. The MIC (Clostridium perfringens) was “≧128”, the MIC (Haemophilus influenzae; Haemophilus influenzae - β-lactamase negative clinical isolate) was “≧128” and the MIC (Haemophilus influenzae; Haemophilus influenzae - β-lactamase positive clinical isolate) was “≧128”. The MIC (Haemophilus influenzae; Haemophilus influenzae β-lactamase negative ampicillin-resistant) was “≧128”, the MIC (Bacteroides fragilis) was 64 and the MIC (Eggerthella lenta) was 16.
